We go through 3 molecules from patent US9725415B2, “Process for the preparation of 5-fluoro-1H-pyrazoles” (BAYER CROPSCIENCE AKTIENGESELLSCHAFT, priority 2013, dated 2017).

The structures appear in SMILES notation.

For orientation: chromatographic logP means lipophilicity estimated from chromatographic retention. Read a high chromatographic logP as higher lipophilicity.

The data set in a line: log P determination by HPLC on a phase inversion column (C18), EEC Directive 79/831 Annex V.A8. Conditions: HPLC-MS method a): C18 column, gradient 10% to 95% acetonitrile (0.1% formic acid) / water (0.09% formic acid), oven 55° C. The data set is classed as physicochemical.
The molecule `Cn1nc(C(F)(F)C(F)(F)F)c(C(F)(F)F)c1-n1cc(-c2ccc(Cl)c(C(=O)NC3(C#N)CC3)c2)cn1` [Compound (IIIa), 2-Chloro-N-1-cyano-cyclopropyl-5-[2′-methyl-5′-(pentafluoroethyl)-4′-(trifluoromethyl)-2′H-1,3′-bipyrazol-4-yl]benzamide] came in with a chromatographic logP of 3.72.
With `Cn1nc(C(F)(F)C(F)(F)F)c(C(F)(F)F)c1C(=O)Nc1ccc(Cl)c(C(=O)NCc2ccccc2)c1` [Compound (IIa), N-[4-chloro-3-(benzylcarbamoyl)phenyl]-1-methyl-3-(pentafluoroethyl)-4-(trifluoromethyl)-1H-pyrazole-5-carboxamide] the figure was 3.9; with `Cn1nc(C(F)(F)C(F)(F)F)c(C(F)(F)F)c1-n1cc(Br)cn1` [Intermediate (12), 4-bromo-2′-methyl-5′-(pentafluoroethyl)-4′-(trifluoromethyl)-2′H-1,3′-bipyrazole], 4.14.
